In brackets after ≈: the same amount, converted by molar mass. Read-outs that look alike come from different tables or passages of the source. Marks after values point to notes of the source that are not given here.
How the values were obtained:
genomic DNA from salmon = experiment: UV-Vis DNA thermal melting, genomic DNA; assay type: binding; conditions: 10 µM S-MGB, 0.02 mg/mL salmon gDNA
Protocol: Salmon DNA (D1626, Sigma-Aldrich) at 1 mg/mL in 1 mM phosphate buffer (pH 7.4) containing 0.27 mM KCl and 13.7 mM NaCl (P4417, Sigma-Aldrich) was annealed at 90 °C for 10 min. MGB-BP-3 at 10 mM in DMSO was diluted with the same phosphate buffer, and combined with the salmon DNA stock, to yield a single sample with 10 µM S-MGB and 0.02 mg/mL gDNA in 1 mM phosphate buffer containing 0.27 mM KCl and 13.7 mM NaCl. Control samples containing only MGB-BP-3 or gDNA were prepared, respectively. The samples were melted at a rate of 0.5 °C/min from 45 °C to 90 °C, with spectra recorded at 260 nm on a UV-1900 UV-vis spectrophotometer fitted with a Peltier temperature controller (Shimadzhu, Kyoto, Japan), using LabSolutions (Tm Analysis) software. The melting temperatures (Tms) of the MGB-BP-3:DNA complexes were determined by fitting a sigmoidal function using a Boltzmann distribution in OriginPro. Two independent experiments were carried out and the values quoted with an error no worse than ±0.5 °C.

[1] = tested on: DNA sequence 5′-CGCATATATGCG-3′; experiment: Native mass spectrometry of DNA binding stoichiometry; conditions: 9 μM DNA, 100 μM S-MGB, 150 mM ammonium acetate
Protocol: DNA sample preparation: The DNA oligonucleotide sequence 5′-[…]-3′ was purchased in lyophilised form from Alpha DNA, Montreal, Canada, and used without further purification; its purity was assessed via NMR. We prepared 100 μM stock solutions of DNA with 150 mM ammonium acetate buffer solution (Fisher Scientific, Loughborough, Leicestershire, UK) and 2 mM potassium chloride solution (Fisher Scientific, Loughborough, Leicestershire, UK). This solution was annealed at 90 degrees for 10 min and allowed to cool to room temperature. A total of 10 mM S-MGB stock in 100% DMSO (Sigma-Aldrich, St. Louis, MO, USA) was diluted to a 1 mM S-MGB solution with 150 mM ammonium acetate. The final samples were prepared from this solution to yield final concentrations of 9 μM DNA, 100 μM KCl, 100 μM S-MGB and 1% DMSO. DNA solutions containing no S-MGB included 1% DMSO and were used as controls.
Mass spectrometry measurements: Native mass spectrometry experiments were carried out using a Synapt G2Si instrument (Waters, Manchester, UK) with a nanoelectrospray ionisation source (nESI). Mass calibration was performed using a separate infusion of NaI cluster ions. […]

[2] = tested on: bloodstream form T. b. brucei (Lister 427); design: method as in PMID 34447938; conditions: data previously reported ref 19; cited from earlier work
d(5′-CGCATATATGCG-3′) = experiment: UV-Vis DNA thermal melting, short DNA oligo; assay type: binding; conditions: 2 MGB: 1 DNA, 10 mM PBS pH 7.4, 50 mM NaCl
Protocol: The DNA oligonucleotide sequence 5′-[…]-3′ was purchased in lyophilised form from Alpha DNA, Canada, and used without further purification, with purity assessed via NMR. The DNA oligomer was melted at a rate of 0.5 °C/min in 10 mM PBS buffer solution (pH 7.4) with 50 mM NaCl on a Cary 300 BIO UV–visible spectrophotometer fitted with a Peltier temperature controller. The programs were set and the data were processed using Cary WinUV software. The duplex oligomer was made to a concentration of 6 × 10^−6 M, heated to 90 °C and allowed to cool to room temperature unaided. This was mixed with sufficient S-MGB to give the appropriate ratio of 2 MGB: 1 DNA. For the reference melting temperature, no S-MGB was added. Samples were heated from 10 °C to 90 °C and cooled from 90 °C to 10 °C, with the spectra being recorded at 260 nm during both of these cycles. The melting temperatures (Tm) of the duplex oligomers were determined by fitting a sigmoidal function using a Boltzmann distribution in OriginPro.

[3] = tested on: L. donovani LV82 luc1 (MHOM/ET/67:LV82); experiment: Anti-Leishmania assay, intracellular amastigotes in bone marrow-derived macrophages, luciferase readout; assay type: cell-based; conditions: read-out: L. donovani IC50
Protocol: The compounds were screened in vitro for their antileishmanial activity against the intracellular amastigote stage. Briefly, bone marrow-derived macrophages (0.5 × 10^5 cells per well) were infected using a 20:1 host cell: parasite ratio with luciferase-expressing L. donovani LV82 luc1 (MHOM/ET/67:LV82). […] Amphotericin B solution was used as a positive control and was used at a starting concentration of 1 μM. The medium was removed from each sample at 72 h post-infection and replaced with 150 μL luciferin solution (150 μg mL^−1 luciferin in serum-free medium). The amount of bioluminescent signal emitted/well was determined and used to calculate the mean suppression in the bioluminescent signal for each test sample compared to the mean control values. The EC50 values were calculated and the mean EC50 was calculated from the three separate experiments.

S. aureus ATCC 43300 = experiment: Antibacterial assay (MIC, broth dilution); assay type: cell-based; conditions: Staphylococcus aureus, read-out: S. aureus MIC
Protocol: The inhibition of bacterial growth was determined by OD600, using a Tecan Infinite M Nano plate reader. The percentage of growth inhibition was calculated for each well, using the negative control (medium only) and positive control (bacteria without inhibitors) on the same plate. […] Each MIC determination was carried out in triplicate, on separate days.

hERG ion channel [4] = target: T1, hERG ion channel (Homo sapiens, UniProt Q12809); design: method as in PMID 22948178; conditions: compounds at 10 μM; data previously reported ref 20; cited from earlier work
T1 construct: expressed in transfected cells; host or cells: HEK293 cells (gift of Dr. J. Mitcheson, University of Leicester)
T1 sequence (Q12809 whole entry): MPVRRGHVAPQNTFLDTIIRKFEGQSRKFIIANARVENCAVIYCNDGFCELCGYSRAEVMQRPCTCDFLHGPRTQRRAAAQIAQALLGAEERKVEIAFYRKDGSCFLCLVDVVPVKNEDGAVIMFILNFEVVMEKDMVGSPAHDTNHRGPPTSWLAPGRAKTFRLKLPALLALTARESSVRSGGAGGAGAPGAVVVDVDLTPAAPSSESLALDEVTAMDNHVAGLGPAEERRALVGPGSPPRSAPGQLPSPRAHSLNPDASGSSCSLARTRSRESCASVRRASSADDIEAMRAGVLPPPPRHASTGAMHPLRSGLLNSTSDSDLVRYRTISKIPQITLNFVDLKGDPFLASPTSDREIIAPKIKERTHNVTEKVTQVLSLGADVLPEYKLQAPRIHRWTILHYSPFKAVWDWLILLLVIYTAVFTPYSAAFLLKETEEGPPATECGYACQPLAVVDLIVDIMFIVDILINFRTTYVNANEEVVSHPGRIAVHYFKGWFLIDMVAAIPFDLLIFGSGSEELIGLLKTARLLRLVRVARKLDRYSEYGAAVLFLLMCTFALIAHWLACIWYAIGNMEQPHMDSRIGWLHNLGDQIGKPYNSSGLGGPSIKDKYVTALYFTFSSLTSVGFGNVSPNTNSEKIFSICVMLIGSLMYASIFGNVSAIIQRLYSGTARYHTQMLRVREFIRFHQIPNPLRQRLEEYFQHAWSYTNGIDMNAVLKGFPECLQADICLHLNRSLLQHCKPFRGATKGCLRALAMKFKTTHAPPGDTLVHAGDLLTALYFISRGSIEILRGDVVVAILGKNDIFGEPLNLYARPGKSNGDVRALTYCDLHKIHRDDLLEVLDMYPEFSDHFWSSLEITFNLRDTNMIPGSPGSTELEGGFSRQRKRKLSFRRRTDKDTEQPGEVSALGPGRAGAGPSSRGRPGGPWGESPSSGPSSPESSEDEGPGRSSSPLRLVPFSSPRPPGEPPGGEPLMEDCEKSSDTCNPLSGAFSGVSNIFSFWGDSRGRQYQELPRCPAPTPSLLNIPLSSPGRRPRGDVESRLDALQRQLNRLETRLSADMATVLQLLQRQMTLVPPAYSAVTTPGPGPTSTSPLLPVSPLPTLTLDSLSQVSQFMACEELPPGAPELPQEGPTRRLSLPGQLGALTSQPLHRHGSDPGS

hERG ion channel [5] = target: T1, hERG ion channel; experiment: hERG cell-binding assay, [3H]-astemizole displacement in hERG-transfected HEK293 cells; conditions: compounds at 10 μM
Protocol: hERG-transfected HEK293 cells were kindly gifted by Dr. J. Mitcheson, University of Leicester. The cell cultures were maintained in Gibco Dulbecco’s Modified Eagle Medium (D-MEM) + GlutaMAX1^TM medium supplemented with 10% foetal bovine serum ([…]), 1% penicillin–streptomycin and 0.8% Geneticin in a Sanyo humidified incubator (37 °C, 5% CO2). Once at 80–90% confluency, the cells were lifted using a PBS-based, enzyme-free Cell Dissociation Buffer. The cell suspension was counted using a Bright Line Haemocytometer and centrifuged at 1000 rpm for 5 min, and the supernatant discarded. The pellet was resuspended in ice-cold Tris-HCl, pH 7.4 (20 mM), with 1% phenylmethylsulfonyl fluoride (PMSF). […]
[^3H]-Astemizole binding in hERG-transfected HEK293 cells was performed in a […] total volume according to the following conditions: cells (~200,000 cells per assay tube, […]), [^3H]- astemizole (0.5 nM, […]), incubation buffer (10 mM HEPES, pH 7.4, 130 mM NaCl, 5 mM KCl, 0.8 mM MgCl2, 10 mM glucose, 0.1% BSA, 100 mL) for the total binding or drug compound ([…], 100 mL) for the single-point assay. Non-specific binding was determined using nonradiolabelled astemizole ([…], 100 mL). […] The radioactivity retained on the filters (pre-soaked in 0.5% PEI) was measured via counting in scintillation fluid (4 mL, Tri-Carb 1500 Packard; Emulsifier-Safe).

[6] = tested on: bloodstream form T. b. brucei (Lister 427); experiment: Anti-Trypanosoma alamarBlue assay; assay type: cell-based
Protocol: The bloodstream form T. b. brucei (Lister 427) was cultured in HMI-11 medium (Gibco) supplemented with 10% heat-inactivated FBS (Gibco), at 37 °C in a humidified 5% CO2 environment.
The EC50 values were determined using the in vitro alamarBlue assay. T. b. brucei parasites (2 × 10^4 cells per mL), were seeded into serial dilutions of the test compounds to a final volume of 200 μL and incubated for 48 h, after which 20 μL of 0.49 mM resazurin dye (Sigma-Aldrich, St. Louis, MO, USA) was added and the cells were incubated for a further 24 h. The reduction of resazurin was measured using a fluorimeter (FLUOstar Optima, BMG Labtech, Ortenberg, Germany) at 544 nm excitation and 590 nm emission wavelengths. The EC50 values were determined using Prism 5 software (GraphPad, San Diego, CA, USA). All experiments were carried out on at least three independent occasions.

[7] = LUC1, intracellular amastigotes, 72 h post-infection, mean of 3 experiments

Row | Compound | Tm increase (genomic DNA from salmon) [°C] | Melting Temperature of gDNA + S-MGB complex (genomic DNA from salmon; gDNA alone 69.6 ± 0.3) [°C] | binding stoichiometry to double-stranded DNA by nMS [1] | binding stoichiometry to double-stranded DNA by nMS ([1]; listed as S-MGB-BP-3) | T. b. brucei MIC [2] | ΔTm, DNA melting temperature increase (d(5′-CGCATATATGCG-3′)) [°C] | IC50 [3, 7] [µM] | MIC (S. aureus ATCC 43300; ATCC43300, 18 h, 37 °C) [µM] | hERG % displacement of [3H]-astemizole (hERG ion channel [4]) | IC50 ([3]; LUC1, 72 h) [µM] | MIC (S. aureus ATCC 43300; ATCC43300, 18 h) [µM] | hERG % displacement of [3H]-astemizole (hERG ion channel [5]) [%] | MIC [6] [µM]
1 | Cn1cc(NC(=O)c2cc(NC(=O)c3ccc(/C=C/c4cnc5ccccc5c4)cc3)cn2C)cc1C(=O)NCCN1CCOCC1 [S-MGB-3, 1-methyl-N-[1-methyl-5-({[2-(4-morpholinyl)ethyl]amino}carbonyl)-1H-pyrrol-3-yl]-4-({4-[(E)-2-(3-quinolinyl)ethenyl]benzoyl}amino)-1H-pyrrole-2-carboxamide] | 12.6 | 82.2 ± 0.1 | selectively bind to double-stranded DNA as a dimer only | bind 2xS-MGB molecules | – | – | – | – | – | – | – | – | –
2 | N=C(N)c1ccc(OCCCCCOc2ccc(C(=N)N)cc2)cc1 [compound 1] | – | – | – | – | 0.78 * μM | 11 | 3.5 ± 0.1 | 50 (≈ 17 µg/mL) | – | – | – | – | –
3 | N=C(N)c1ccc(-c2cc3ccc(C(=N)N)cc3[nH]2)cc1 [compound 2] | – | – | – | – | 1.56 * μM | 15 | 5.7 ± 0.4 | 3.12 (≈ 0.865 µg/mL) | 58 ** % | – | – | – | –
4 | Cn1cc(NC(=O)c2cc(NC(=O)c3cc(NC=O)cn3C)cn2C)cc1C(=O)NCCC(=N)N [compound 3] | – | – | – | – | <0.19 * μM | 17 | – | – | 64 ** % | 5.1 ± 0.7 | 0.78 (≈ 0.376 µg/mL) | – | –
5 | COc1cccc(/C=C/c2ccc(C(=O)Nc3cc(C(=O)Nc4cc(C(=O)NCC[N+]5([O-])CCOCC5)n(C)c4)n(C)c3)cc2)c1 [compound 206] | – | – | – | – | – | 1 | 2.4 ± 0.3 | > 100 | – | – | – | 44 | 6.25 (≈ 3.92 µg/mL)
6 | COc1ccc(/C=C/c2ccc(C(=O)Nc3cc(C(=O)Nc4cc(C(=O)NCC[N+]5([O-])CCOCC5)n(C)c4)n(C)c3)cn2)cc1 [compound 207] | – | – | – | – | – | 1 | 3.1 ± 1 | > 100 | – | – | – | 45 | 12.5 (≈ 7.85 µg/mL)

Reference: article PMC9569768, “Selective Anti-Leishmanial Strathclyde Minor Groove Binders Using an N-Oxide Tail-Group Modification” (International Journal of Molecular Sciences, 2022)
